Assay results: US20240409585A1, “MACROCYCLIC IMMUNOMODULATORS” (priority 2021, published 2024)
Bridge positions count the residues as written; N and C are the ends. Square brackets hold non-standard residues; d marks the D form. Peptide text beside a SMILES is read from it. * marks the point of attachment. Bip(4'-COOH) = N[C@@H](Cc1ccc(-c2ccc(C(=O)O)cc2)cc1)C(=O)O; Bip(4'-NHAc) = CC(=O)Nc1ccc(-c2ccc(C[C@H](N)C(=O)O)cc2)cc1; Phe(3-CF3) = N[C@@H](Cc1cccc(C(F)(F)F)c1)C(=O)O; Phe(4-CONH2) = NC(=O)c1ccc(C[C@H](N)C(=O)O)cc1; Phe(4-COOH) = N[C@@H](Cc1ccc(C(=O)O)cc1)C(=O)O; Bip = N[C@@H](Cc1ccc(-c2ccccc2)cc1)C(=O)O; Abu(3R-NH2) = C[C@@H](N)[C@H](N)C(=O)O; Phe(3-Me) = Cc1cccc(C[C@H](N)C(=O)O)c1; Abu(3S-NH2) = C[C@H](N)[C@H](N)C(=O)O; Phe(2-F) = N[C@@H](Cc1ccccc1F)C(=O)O; Val(3-OH) = CC(C)(O)[C@H](N)C(=O)O; hCha = N[C@@H](CCC1CCCCC1)C(=O)O; hPhe = N[C@@H](CCc1ccccc1)C(=O)O; Cha = N[C@@H](CC1CCCCC1)C(=O)O; Carboxymethyl = O=C(O)C*; NMeA = CN[C@@H](C)C(=O)O; Orn = NCCC[C@H](N)C(=O)O; Dab = NCC[C@H](N)C(=O)O

What follows are compounds tested against T1, Alexa fluor-647 labeled human PD-L1-Ig binding to Jurkat cell line over-expressing human PD-1 (Homo sapiens, UniProt Q15116) (assay: Jurkat-PD-1 Cell Binding High-Content Screening Assay (CBA): Method 3 (Alexa fluor-647 labeled PD-L1-Ig)). Details: Jurkat-PD-1 cells, Alexa fluor-647 labeled PD-L1-Ig 177 nM; head μM; read-out: CBA Method 3 μM.
T1 construct: expressed in transfected cells; host or cells: Jurkat
T1 sequence (Q15116 25-288): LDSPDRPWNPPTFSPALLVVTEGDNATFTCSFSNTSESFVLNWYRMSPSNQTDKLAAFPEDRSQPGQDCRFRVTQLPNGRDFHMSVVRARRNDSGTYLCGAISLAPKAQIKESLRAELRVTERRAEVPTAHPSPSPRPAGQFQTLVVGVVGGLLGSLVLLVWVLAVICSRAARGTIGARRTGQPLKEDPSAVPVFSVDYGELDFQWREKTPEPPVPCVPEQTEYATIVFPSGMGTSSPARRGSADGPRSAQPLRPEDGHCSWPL
Outline: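 Readout by high-content imaging of PFA-fixed, Hoechst-stained cells after 1 h with 177 nM (final) Alexa fluor-647 PD-L1-Ig. Compound was added first to hPD-1 Jurkat cells in RPMI plus 10% FCS for 2 h at 37 °C.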

With Cc1cccc(C[C@@H]2NC(=O)[C@H](CC(=O)O)NC(=O)[C@H](Cc3ccc(C(=O)O)cc3)NC(=O)[C@H](CC3CCCCC3)NC(=O)CSC[C@@H](C(=O)N[C@@H](CCN)C(N)=O)NC(=O)[C@H](CCC(=O)O)NC(=O)[C@H](C(C)C)NC(=O)[C@H](CC3CCCCC3)NC(=O)[C@H](CCN)NC(=O)[C@@H](CC(C)C)NC(=O)[C@H](C)N(C)C(=O)[C@H](Cc3ccc(C(=O)O)cc3)NC(=O)[C@H](Cc3ccc(-c4ccccc4)cc3)NC(=O)[C@H](Cc3ccc(-c4ccc(C(=O)O)cc4)cc3)NC2=O)c1 [Example 5198] ({CH2CO}-[Cha][Phe(4-COOH)]D[Phe(3-Me)][Bip(4'-COOH)][Bip][Phe(4-COOH)][NMeA][dL][Dab][Cha]VEC[Dab]-NH2; thioether N-14) as the compound, how does the IC50 read?
The IC50 was 0.01 µM.

Which IC50 does the source give for Cc1cccc(C[C@@H]2NC(=O)[C@H](CC(=O)O)NC(=O)[C@H](Cc3ccc(OCC(=O)O)cc3)NC(=O)[C@H](CC3CCCCC3)NC(=O)CSC[C@@H](C(=O)N[C@@H](CCN)C(N)=O)NC(=O)[C@H](CCCN)NC(=O)[C@H](C(C)C)NC(=O)[C@H](CCC3CCCCC3)NC(=O)[C@H](CCN)NC(=O)[C@@H](CC(C)C)NC(=O)[C@H](C)N(C)C(=O)[C@H](CCC(N)=O)NC(=O)[C@H](Cc3ccc(-c4ccccc4)cc3)NC(=O)[C@H](Cc3ccc(C(=O)O)cc3)NC2=O)c1 [Example 5193] ({CH2CO}-[Cha]Y(Carboxymethyl)D[Phe(3-Me)][Phe(4-COOH)][Bip]Q[NMeA][dL][Dab][hCha]V[Orn]C[Dab]-NH2; thioether N-14) here?
Its IC50 is 0.38 µM.

Which IC50 does the source give for CC(C)C[C@@H]1NC(=O)[C@H](Cc2c[nH]c3ccccc23)NC(=O)[C@H](CC(=O)O)NC(=O)[C@H](Cc2ccc(C(=O)O)cc2)NC(=O)[C@H](Cc2ccc(OCC(=O)O)cc2)NC(=O)CSC[C@@H](C(=O)N[C@@H](CCN)C(N)=O)NC(=O)[C@H](C(C)C)NC(=O)[C@H]([C@@H](C)O)NC(=O)[C@H](CC2CCCCC2)NC(=O)[C@H](CCN)NC(=O)[C@@H](CC(C)C)NC(=O)[C@H](C)N(C)C(=O)[C@H](C(C)C)NC(=O)[C@H](Cc2ccc(-c3ccccc3)cc2)NC1=O [Example 5141] ({CH2CO}-Y(Carboxymethyl)[Phe(4-COOH)]DWL[Bip]V[NMeA][dL][Dab][Cha]TVC[Dab]-NH2; thioether N-14) here?
The IC50 was 0.02 µM.

Which IC50 does the source give for Cc1cccc(C[C@@H]2NC(=O)[C@H](CC(=O)O)NC(=O)[C@H](Cc3ccc(OCC(=O)O)cc3)NC(=O)[C@H](Cc3ccccc3F)NC(=O)CSC[C@@H](C(=O)N[C@@H](CCN)C(N)=O)NC(=O)[C@H](CCCN)NC(=O)[C@H](C(C)C)NC(=O)[C@H](CC3CCCCC3)NC(=O)[C@H](CCN)NC(=O)[C@@H](CC(C)C)NC(=O)[C@H](C)N(C)C(=O)[C@H](CCC(N)=O)NC(=O)[C@H](Cc3ccc(-c4ccccc4)cc3)NC(=O)[C@H](Cc3ccc(C(=O)O)cc3)NC2=O)c1 [Example 5293] ({CH2CO}-[Phe(2-F)]Y(Carboxymethyl)D[Phe(3-Me)][Phe(4-COOH)][Bip]Q[NMeA][dL][Dab][Cha]V[Orn]C[Dab]-NH2; thioether N-14) here?
Its IC50 is 0.06 µM.

How did the IC50 turn out when Cc1cccc(C[C@@H]2NC(=O)[C@H](CC(=O)O)NC(=O)[C@H](Cc3ccc(-c4ccc(C(=O)O)cc4)cc3)NC(=O)[C@H](C)NC(=O)CSC[C@@H](C(=O)N[C@@H](CCN)C(N)=O)NC(=O)[C@H](CO)NC(=O)[C@H](C(C)(C)O)NC(=O)[C@H](CC3CCCCC3)NC(=O)[C@H](Cc3cnc[nH]3)NC(=O)[C@@H](CC(C)C)NC(=O)[C@H](C)N(C)C(=O)[C@H](Cc3ccc(C(=O)O)cc3)NC(=O)[C@H](Cc3ccc(-c4ccccc4)cc3)NC(=O)[C@H](Cc3ccc(-c4ccc(C(=O)O)cc4)cc3)NC2=O)c1 [Example 5121] ({CH2CO}-A[Bip(4'-COOH)]D[Phe(3-Me)][Bip(4'-COOH)][Bip][Phe(4-COOH)][NMeA][dL]H[Cha][Val(3-OH)]SC[Dab]-NH2; thioether N-14) was run?
The IC50 was 0.07 µM.

How did the IC50 turn out when CC(C)C[C@H]1NC(=O)[C@H](C)N(C)C(=O)[C@H](CCC(N)=O)NC(=O)[C@H](Cc2ccc(-c3ccccc3)cc2)NC(=O)[C@H](CCc2ccccc2)NC(=O)[C@H](Cc2cccc(C(F)(F)F)c2)NC(=O)[C@H](CC(=O)O)NC(=O)[C@H](Cc2ccc(OCC(=O)O)cc2)NC(=O)[C@H]([C@@H](C)N)NC(=O)CSC[C@@H](C(=O)N[C@@H](CCN)C(N)=O)NC(=O)[C@H](CCCN)NC(=O)[C@H](C(C)C)NC(=O)[C@H](CC2CCCCC2)NC(=O)[C@H](CCN)NC1=O [Example 5219] ({CH2CO}-[Abu(3R-NH2)]Y(Carboxymethyl)D[Phe(3-CF3)][hPhe][Bip]Q[NMeA][dL][Dab][Cha]V[Orn]C[Dab]-NH2; thioether N-14) was run?
Its IC50 is 0.1 µM.

Same assay, conditions: Jurkat-PD-1 cells, Alexa fluor-647 labeled PD-L1-Ig 177 nM; nM; read-out: CBA Method 3

With Cc1cccc(C[C@@H]2NC(=O)[C@H](CC(=O)O)NC(=O)[C@H](Cc3ccc(OCC(=O)O)cc3)NC(=O)[C@H](C)NC(=O)CSC[C@@H](C(=O)N[C@@H](CCN)C(N)=O)NC(=O)[C@H](CCC(=O)O)NC(=O)[C@H](C(C)C)NC(=O)[C@H](CC3CCCCC3)NC(=O)[C@H](CCN)NC(=O)[C@@H](CC(C)C)NC(=O)[C@H](C)N(C)C(=O)[C@H](Cc3ccc(C(=O)O)cc3)NC(=O)[C@H](Cc3ccc(-c4ccccc4)cc3)NC(=O)[C@H](Cc3ccc(C(=O)O)cc3)NC2=O)c1 [Example 5137] ({CH2CO}-AY(Carboxymethyl)D[Phe(3-Me)][Phe(4-COOH)][Bip][Phe(4-COOH)][NMeA][dL][Dab][Cha]VEC[Dab]-NH2; thioether N-14) as the compound, how does the IC50 read?
Its IC50 is 0.0044 µM.

With CC(=O)Nc1ccc(-c2ccc(C[C@@H]3NC(=O)[C@H](Cc4cccc(C(F)(F)F)c4)NC(=O)[C@H](CC(=O)O)NC(=O)[C@H](Cc4ccc(C(=O)O)cc4)NC(=O)[C@H]([C@H](C)N)NC(=O)CSC[C@@H](C(=O)N[C@@H](CCN)C(N)=O)NC(=O)[C@H](CC(N)=O)NC(=O)[C@H](C(C)C)NC(=O)[C@H](CC4CCCCC4)NC(=O)[C@H](CCN)NC(=O)[C@@H](CC(C)C)NC(=O)[C@H](C)N(C)C(=O)[C@H](Cc4ccc(C(N)=O)cc4)NC(=O)[C@H](Cc4ccc(-c5ccccc5)cc4)NC3=O)cc2)cc1 [Example 5109] ({CH2CO}-[Abu(3S-NH2)][Phe(4-COOH)]D[Phe(3-CF3)][Bip(4'-NHAc)][Bip][Phe(4-CONH2)][NMeA][dL][Dab][Cha]VNC[Dab]-NH2; thioether N-14) as the compound, how does the IC50 read?
The IC50 was 0.0044 µM.

With Cc1cccc(C[C@@H]2NC(=O)[C@H](CC(=O)O)NC(=O)[C@H](Cc3ccc(OCC(=O)O)cc3)NC(=O)[C@H](CCCCN)NC(=O)CSC[C@@H](C(=O)N[C@@H](CCN)C(N)=O)NC(=O)[C@H](CCCN)NC(=O)[C@H](C(C)C)NC(=O)[C@H](CC3CCCCC3)NC(=O)[C@H](CCN)NC(=O)[C@@H](CC(C)C)NC(=O)[C@H](C)N(C)C(=O)[C@H](CCC(N)=O)NC(=O)[C@H](Cc3ccc(-c4ccccc4)cc3)NC(=O)[C@H](Cc3ccc(C(=O)O)cc3)NC2=O)c1 [Example 5181] ({CH2CO}-KY(Carboxymethyl)D[Phe(3-Me)][Phe(4-COOH)][Bip]Q[NMeA][dL][Dab][Cha]V[Orn]C[Dab]-NH2; thioether N-14) as the compound, how does the IC50 read?
The IC50 was 0.0038 µM.

How did the IC50 turn out when Cc1cccc(C[C@@H]2NC(=O)[C@H](CC(=O)O)NC(=O)[C@H](Cc3ccc(OCC(=O)O)cc3)NC(=O)[C@H](Cc3ccc(O)cc3)NC(=O)CSC[C@@H](C(=O)N[C@@H](CCN)C(N)=O)NC(=O)[C@H](CCCN)NC(=O)[C@H](C(C)C)NC(=O)[C@H](CC3CCCCC3)NC(=O)[C@H](CCN)NC(=O)[C@@H](CC(C)C)NC(=O)[C@H](C)N(C)C(=O)[C@H](CCC(N)=O)NC(=O)[C@H](Cc3ccc(-c4ccccc4)cc3)NC(=O)[C@H](Cc3ccc(C(=O)O)cc3)NC2=O)c1 [Example 5271] ({CH2CO}-YY(Carboxymethyl)D[Phe(3-Me)][Phe(4-COOH)][Bip]Q[NMeA][dL][Dab][Cha]V[Orn]C[Dab]-NH2; thioether N-14) was run?
The IC50 was 0.001 µM.

CC(C)C[C@H]1NC(=O)[C@H](C)N(C)C(=O)[C@H](CCC(N)=O)NC(=O)[C@H](Cc2ccc(-c3ccccc3)cc2)NC(=O)[C@H](CCc2ccccc2)NC(=O)[C@H](Cc2cccc(C(F)(F)F)c2)NC(=O)[C@H](CC(=O)O)NC(=O)[C@H](Cc2ccc(OCC(=O)O)cc2)NC(=O)[C@H]([C@@H](C)N)NC(=O)CSC[C@@H](C(=O)N[C@@H](CCN)C(N)=O)NC(=O)[C@H](CO)NC(=O)[C@H](C(C)(C)O)NC(=O)[C@H](CC2CCCCC2)NC(=O)[C@H](CCN)NC1=O [Example 5227] ({CH2CO}-[Abu(3R-NH2)]Y(Carboxymethyl)D[Phe(3-CF3)][hPhe][Bip]Q[NMeA][dL][Dab][Cha][Val(3-OH)]SC[Dab]-NH2; thioether N-14) was tested. Which IC50 did it give?
Its IC50 is 0.0015 µM.

With Cc1cccc(C[C@@H]2NC(=O)[C@H](CC(=O)O)NC(=O)[C@H](Cc3ccc(OCC(=O)O)cc3)NC(=O)[C@H](Cc3cnc[nH]3)NC(=O)CSC[C@@H](C(=O)N[C@@H](CCN)C(N)=O)NC(=O)[C@H](CCCN)NC(=O)[C@H](C(C)C)NC(=O)[C@H](CC3CCCCC3)NC(=O)[C@H](CCN)NC(=O)[C@@H](CC(C)C)NC(=O)[C@H](C)N(C)C(=O)[C@H](CCC(N)=O)NC(=O)[C@H](Cc3ccc(-c4ccccc4)cc3)NC(=O)[C@H](Cc3ccc(C(=O)O)cc3)NC2=O)c1 [Example 5274] ({CH2CO}-HY(Carboxymethyl)D[Phe(3-Me)][Phe(4-COOH)][Bip]Q[NMeA][dL][Dab][Cha]V[Orn]C[Dab]-NH2; thioether N-14) as the compound, how does the IC50 read?
The IC50 was 0.006 µM.

With CC(C)C[C@H]1NC(=O)[C@H](C)N(C)C(=O)[C@H](CCC(N)=O)NC(=O)[C@H](Cc2ccc(-c3ccccc3)cc2)NC(=O)[C@H](Cc2ccc(OCC(=O)O)cc2)NC(=O)[C@H](Cc2cccc(C(F)(F)F)c2)NC(=O)[C@H](CC(=O)O)NC(=O)[C@H](CCC(N)=O)NC(=O)[C@H](CC2CCCCC2)NC(=O)CSC[C@@H](C(=O)N[C@@H](CCN)C(N)=O)NC(=O)[C@H](CCCN)NC(=O)[C@H](C(C)C)NC(=O)[C@H](CC2CCCCC2)NC(=O)[C@H](CCN)NC1=O [Example 5248] ({CH2CO}-[Cha]QD[Phe(3-CF3)]Y(Carboxymethyl)[Bip]Q[NMeA][dL][Dab][Cha]V[Orn]C[Dab]-NH2; thioether N-14) as the compound, how does the IC50 read?
The IC50 was 0.0006 µM.
